Assay results reported in patent US6337348B1, “Oxy-vanadium (iv) complexes having spermicidal activity” (Parker Hughes Institute, priority 1998, dated 2002).

Legend:
Assay type in all cases: cell-based
human sperm [1] = assay: Sperm immobilization assay (SIA), motility by CASA; conditions: for EC50: read-out: EC50 (concentration that decreases the proportion of motile sperm by 50%), 3 hours incubation at 37° C., BWW-0.3% BSA, serial 2-fold dilutions 250 μM to 1.9 μM, mean of two experiments
Experimental: To evaluate the spermicidal effects of complexes of oxovanadium (IV), VO(phen), VO(phen)2, VO(Me2—phen), VO(Me2—phen)2, VO(Cl—phen), VO(Cl—phen)2], VO(bipy), VO(bipy)2, VO(Me2—bipy), VO(Me2—bipy)2, and VO(Br,OH—acph)2, a highly motile fraction of pooled donor sperm (N=5) was prepared by discontinuous (90−45%). Percoll gradient (Conception Technologies, San Diego, Calif.) centrifugation and the “swim-up” method as described previously (Aitken et al., 1989, Biol. Reprod. 40:183-197). All donor specimens were obtained after informed consent and in compliance with the guidelines of the Hughes Institutional Review Board. Motile sperm (≳10×10^6/ml) were suspended in 1 ml of Biggers, Whitten, and Whittingham's medium (BWW) containing 0.3% BSA (fraction V; Sigma Chemical Co., St. Louis, Mo.) in the presence and absence of serial 2-fold dilutions of test substance (250 μM−1.9 μM) in 0.25% dimethyl sulfoxide (DMSO). For each experiment, fresh stock solutions (100 mM) of vanadium compounds were prepared in DMSO. A corresponding volume of DMSO (0.25%) was added to control sperm suspension. After 3 hours of incubation at 37° C., the percentage of motile sperm was evaluated by computer-assisted sperm motion analysis (CASA) as described previously (Aitken et al., 1989, Supra). The percentages of motilities were compared with those of sham-treated control suspensions of motile sperm.
For CASA, 4 μl each of sperm suspension was loaded into two 20 μm Microcell chambers placed onto a counting chamber at 37° C. At least 5-8 fields per chamber were scanned for analysis using a Hamilton Thorne Integrated Visual Optical System (IVOS) version 10 instrument (Hamilton Thorne Research Inc., Danvers, Mass.). Each field was recorded for 30 seconds. The Hamilton Thorne computer calibrations were set at 30 frames at a frame rate of 30 images/seconds. Other settings were as follows: minimum contrast 8; minimum size 6; low-size gate, 1.0; high-size gate,2.9; low-intensity gate, 0.6; high-intensity gate, 1.4; phase-contrast illumination; low path velocity at 10 μm/seconds and threshold straightness at 80%; magnification factor, 1.95. The performance of the analyzer was periodically checked using the playback function.
Results for the various numerical sperm functional parameters are presented as mean±standard deviation (SD) values. Comparison between oxovanadium (IV) complex-treated and control sperm relative to sperm motility parameters and apoptosis were performed using paired, two-tailed Student's T-test. A p value of <0.05 was considered significant.

human sperm [2] = assay: Flow cytometric quantitation of sperm acrosome reaction (anti-CD46 mAb binding); conditions: tested at 100 μM, 3 hours, 37° C., mean of two experiments
Experimental: In experiments designed to assess the comparative effects of oxovanadium (IV) complexes and N-9 on sperm acrosome reaction, motile fractions of sperm (10^7/ml) prepared from a single donor were incubated in 1 ml of BWW−0.3% BSA in the presence of 100 μM each of the vanadocene complexes, VO(phen), VO(phen)2, VO(Me2—phen), VO(Me2—phen)2, VO(Cl—phen), VO(Cl—phen)2, VO(bipy), VO(bipy)2, VO(Me2—bipy), VO(Me2—bipy)2, and VO(Br,OH—acph)2 in 0.1% DMSO, N-9, or DMSO (0.1%) alone at 37° C. After 3 hours, 5 μg/ml of purified, phycoerythrin (PE)-conjugated murine anti-CD46 monoclonal antibody (mAb; clone 122-2; Research Diagnostics, Flanders, N.J.) was added and the sperm suspensions incubated for an additional 30 minutes. The suspensions was washed in Tyrode's salt solution (Sigma) containing 1% BSA (1% TBSA) and the percentage of CD46-positive sperm were analyzed by flow cytometry using a FACS Vantage flow cytometer (Becton Dickinson, Mountain View, Calif.), as described previously (DeCruz et al., 1996, Biol Reprod. 54:1217-1228; DeCruz et al., 1992, Fertil. Seril., 58:633-636). Two separate experiments were performed to quantitate acrosomal loss following exposure of sperm to oxovanadium (IV) complexes.

human sperm [3] = assay: DNA fragmentation by in situ nick-end labeling (TUNEL) flow cytometry; conditions: 100 μM, 24 hours, 37° C.
Experimental: A flow cytometric two-color terminal deoxynucleotidyl transferase (TdT) assay was employed to detect apoptotic sperm nuclei by TdT-mediated dUTP nick-end labeling (TUNEL, as described in Gavrieli et al., 1992, J. Cell Biol., 119:493-501). The comparative effect of the oxovanadium (IV) complexes, VO(phen), VO(phen)2, VO(Me2—phen), VO(Me2—phen)2, VO(Cl—phen), VO(Cl—phen)2, VO(bipy), VO(bipy)2, VO(Me2—bipy), VO(Me2—bipy)2, and VO(Br,OH—acph)2, to induce apoptosis was tested by incubating 1 ml duplicate aliquots of motile sperm (10^7/ml) in BWW−0.3% BSA at 37° C. for 24 hours with and without 100 μM each of the test compounds. Sperm were washed in phosphate-buffered saline (PBS)−1% BSA, fixed in 4% paraformaldehyde in PBS for 15 minutes. Following two washings in PBS, they were permeabilized with 0.1% Triton X-100 in 0.1% sodium citrate for 2 minutes on ice, and washed twice with PBS. New 3′-hydroxyl (3′—OH) end labeling of fragmented sperm nuclear DNA was performed using TdT and detected by fluorescein (FITC)-conjugated uridine triphosphate (dUTP) according to the manufacturer's recommendations (Boehringer-Mannheim, Indianapolis, Ind.). Sperm aliquots incubated without TdT enzyme served as a negative control. […] Oxovanadium (IV)-induced apopotosis of sperm was shown by an increase in the number of cells staining with FITC- dUTP (M2 gates). The M1 and M2 gates were used to demarcate non-apoptotic and apoptotic PI-counterstained sperm populations, respectively. Two separate experiments were performed to assess dUTP incorporation following exposure of sperm to oxovanadium (IV) complexes.

Clc1cc2cccnc2c2ncccc12.Clc1cc2cccnc2c2ncccc12.O.O=S(=O)([O-])[O-].[O]=[V+2] [VO(Cl-phen)2, (aqua)bis(5-chloro-1,10-phenanthroline)oxovanadium (IV) sulfate]
fold more potent than N-9 (spermicidal activity) (human sperm [1]; identical experimental conditions): 14 fold | EC50 (human sperm [1]): 5.5 µM | Anti-CD46 positive sperm (%) (human sperm [2]): 21.5% | Anti-CD46 positive sperm (%) (human sperm [2]; listed as VO(Cl—phen)2): 21.5% | TUNEL positive sperm (%) (human sperm [3]): 97% | TUNEL positive sperm (%) (human sperm [3]; listed as VO(Cl—phen)2): Greater than 97%

Clc1cc2cccnc2c2ncccc12.O.O.O=S(=O)([O-])[O-].[O]=[V+2] [VO(Cl-phen), (diaqua)(5-chloro-1,10-phenanthroline)oxovanadium (IV) sulfate]
EC50 (human sperm [1]): 39.1 µM | Anti-CD46 positive sperm (%) (human sperm [2]): 11.2% | TUNEL positive sperm (%) (human sperm [3]): 95%

Cc1ccnc2c1ccc1c(C)ccnc12.Cc1ccnc2c1ccc1c(C)ccnc12.O.O=S(=O)([O-])[O-].[O-2].[V+4] [VO(Me2-phen)2, (aqua)bis(4,7-dimethyl-1,10-phenanthroline)oxovanadium (IV) sulfate]
EC50 (human sperm [1]): 47.9 µM | Anti-CD46 positive sperm (%) (human sperm [2]): 11.7% | TUNEL positive sperm (%) (human sperm [3]): 94%

Cc1ccnc2c1ccc1c(C)ccnc12.O.O.O=S(=O)([O-])[O-].[O]=[V+2] [VO(Me2-phen), (diaqua)(4,7-dimethyl-1,10-phenanthroline)oxovanadium (IV) sulfate]
EC50 (human sperm [1]): 20.5 µM | Anti-CD46 positive sperm (%) (human sperm [2]): 14.0% | TUNEL positive sperm (%) (human sperm [3]): 97%

O.O=S(=O)([O-])[O-].[O-2].[V+4].c1ccc(-c2ccccn2)nc1.c1ccc(-c2ccccn2)nc1 [VO(bipy)2, (aqua)bis(2,2′-bipyridyl)oxovanadium (IV) sulfate]
EC50 (human sperm [1]): 35.3 µM | Anti-CD46 positive sperm (%) (human sperm [2]): 4.7% | TUNEL positive sperm (%) (human sperm [3]): 40%

O.O.O=S(=O)([O-])[O-].[O]=[V+2].c1ccc(-c2ccccn2)nc1 [VO(bipy), (diaqua)(2,2′-bipyridyl)oxovanadium (IV) sulfate]
EC50 (human sperm [1]): 118 µM | Anti-CD46 positive sperm (%) (human sperm [2]): 6.1% | TUNEL positive sperm (%) (human sperm [3]): 43%

O.O=S(=O)([O-])[O-].[O]=[V+2].c1cnc2c(c1)ccc1cccnc12.c1cnc2c(c1)ccc1cccnc12 [VO(phen)2, (aqua)bis(1,10-phenanthroline)oxovanadium (IV) sulfate]
EC50 (human sperm [1]): 6.5 µM | Anti-CD46 positive sperm (%) (human sperm [2]): 9.9% | TUNEL positive sperm (%) (human sperm [3]): 98%

O.O.O=S(=O)([O-])[O-].[O]=[V+2].c1cnc2c(c1)ccc1cccnc12 [VO(phen), (diaqua)(1,10-phenanthroline)oxovanadium (IV) sulfate]
EC50 (human sperm [1]): 37 µM | Anti-CD46 positive sperm (%) (human sperm [2]): 9.7% | TUNEL positive sperm (%) (human sperm [3]): 98%

(aqua)bis(4,4′-dimethyl-2,2′-bipyridyl)oxovanadium (IV) sulfate [VO(Me2-bipy)2]
EC50 (human sperm [1]): 72.5 µM | Anti-CD46 positive sperm (%) (human sperm [2]): 3.2% | TUNEL positive sperm (%) (human sperm [3]): 63%

(diaqua)(4,4′-dimethyl-2,2′-bipyridyl)oxovanadium (IV) sulfate [VO(Me2-bipy)]
EC50 (human sperm [1]): 83 µM | Anti-CD46 positive sperm (%) (human sperm [2]): 6.4% | TUNEL positive sperm (%) (human sperm [3]): 45%

bis(5′-bromo-2′-hydroxyacetophenone)oxovanadium (IV) [VO(Br,OH-acph)2]
EC50 (human sperm [1]): 13.4 µM | Anti-CD46 positive sperm (%) (human sperm [2]): 24.3% | Anti-CD46 positive sperm (%) (human sperm [2]; listed as VO(Br,OH—acph)2): 24.3% | TUNEL positive sperm (%) (human sperm [3]): 98%
